Patent US11629171B2, “Beta-hairpin peptidomimetics” (POLYPHOR AG, priority 2017, dated 2023)
Values after ≈ are worked out from the molar mass of the structure shown. Where a SMILES comes first, the peptide text is derived from it. Bridges are numbered along the chain shown (N, C = ends). Roman numbers before positions name the chains, in order. [ ]: non-standard residue; d: D form. The star is where a group is joined. Tle = CC(C)(C)[C@H](N)C(=O)O; Hiv = CC(C)[C@H](O)C(=O)O; dDab = NCC[C@@H](N)C(=O)O; hSer = N[C@@H](CCO)C(=O)O; NHCH(CH2OH)2 = OCC(CO)N*; Orn = NCCC[C@H](N)C(=O)O; Dab = NCC[C@H](N)C(=O)O; Dap = NC[C@H](N)C(=O)O

Assays:
Type in all cases: cell-based
[1] = system: human red blood cells (hRBC); assay: Hemolysis; conditions: red cells of human, 1 h, 200
Protocol: The peptides were tested for their hemolytic activity against human red blood cells (hRBC). Fresh hRBC were washed four times with phosphate buffered saline (PBS) and centrifuged for 10 min at 3000×g. Compounds (200 μg/mL) were incubated with 20% hRBC (v/v) for 1 h at 37° C. and shaking at 300 rpm. A value of 0% and 100% cell lysis, respectively, was determined by incubation of hRBC in the presence of PBS containing 10% water and 2% Triton X-100 in H2O, respectively. The samples were centrifuged, the supernatants were ˜7.5-fold diluted in PBS buffer and the optical densities (OD) were measured at 540 nm and blank corrected. The 100% lysis value (OD540Triton X-100) gave an OD540 of approximately 0.5-1.0.
Percent hemolysis was calculated as follows: (OD540peptide/OD540Triton X-100)×100%.

[2] = system: Acinetobacter baumannii DSM 30008; conditions: DSM 30008
Protocol: (§1) The in vitro antimicrobial activities of the peptides were determined in 96-well plates (Greiner, polystyrene) by the standard CLSI broth microdilution method (Clinical and Laboratory Standards Institute 2014. Performance standards for antimicrobial susceptibility testing, 24th informational supplement. Approved standard CLSI M100-S24; Clinical and Laboratory Standards Institute, Wayne, Pa.). The following microorganisms were used to determine antibiotic activity of the peptides: Escherichia coli ATCC 25922, Klebsiella pneumoniae SSI #3010^a), Acinetobacter baumannii DSM 30008, Pseudomonas aeruginosa ATCC 27853 and the clinical isolates Escherichia coli 926415^b), Klebsiella pneumoniae 968733^b), Acinetobacter baumannii 872842^b), Enterobacter cloacae 848840^b) and Escherichia coli MCR-1 Af45^c). Before preparation of inocula, Escherichia coli MCR-1 Af45 was subcultured on Mueller-Hinton II (MH-cation adjusted) agar containing 2 μg/mL colistin. ^a) Obtained from Statens Serum Institut (SSI), Copenhagen, Denmark^b) Obtained from International Health Management Associates, Inc. (IHMA Europe Sàrl), Epalinges, Switzerland^c) Obtained from Prof. Patrice Nordmann, University of Fribourg, Fribourg, Switzerland
(§2) Inocula of the microorganisms were diluted into Mueller-Hinton II (MH-cation adjusted) broth and compared with a 0.5 McFarland standard to give appr. 10^6 colony forming units (CFU)/mL. Aliquots (90 μL) of inoculum were added to 10 μL of MH-II broth+P-80 (Polysorbate 80, 0.002% final concentration, v/v) containing the peptide in serial two-fold dilutions. Antimicrobial activities of the peptides were expressed as the minimal inhibitory concentration (MIC) in μg/mL at which no visible growth was observed after 18-20 hours of incubation at 35° C.

[3] = system: Enterobacter cloacae 848840; conditions: 848840
Protocol: as §1, §2

[4] = system: Escherichia coli ATCC 25922; conditions: ATCC 25922
Protocol: as §1, §2

[5] = system: Acinetobacter baumannii 872842; conditions: 872842
Protocol: as §1, §2

Escherichia coli 926415 = conditions: 926415
Protocol: as §1, §2

[6] = system: Klebsiella pneumoniae 968733; conditions: 968733
Protocol: as §1, §2

[7] = system: Pseudomonas aeruginosa ATCC 27853; conditions: ATCC 27853
Protocol: as §1, §2

[8] = system: Klebsiella pneumoniae SSI #3010; conditions: SSI #3010
Protocol: as §1, §2

Compound | Hemolysis at 200 μg/mL [1] [%] | MIC [2] [µg/mL] | MIC [3] [µg/mL] | MIC [4] [µg/mL] | MIC [5] [µg/mL] | MIC (Escherichia coli 926415) [µg/mL] | MIC [6] [µg/mL] | MIC [7] [µg/mL] | MIC [8] [µg/mL] | Acinetobacter baumannii DSM 30008 MIC [2] [µg/mL] | Escherichia coli ATCC 25922 MIC [4] [µg/mL] | Pseudomonas aeruginosa ATCC 27853 MIC [7] [µg/mL] | Klebsiella pneumoniae SSI #3010 MIC [8] [µg/mL]
CC(C)C[C@@H]1NC(=O)[C@@H](CC(C)C)NC(=O)[C@H](CCN)NC(=O)[C@@H](NC(=O)[C@H](CN)NC(=O)[C@@H](NC(=O)[C@H](CCN)NC(=O)CC[C@@H]2NC(=O)[C@@H](CCN)NC(=O)CNC(=O)[C@H](CCN)NC(=O)[C@H](Cc3ccc(O)cc3)NC(=O)[C@@H](NC(=O)[C@@H](O)C(C)C)CSSC[C@@H](C(=O)NC(CO)CO)NC(=O)[C@H](C(C)(C)C)NC(=O)[C@H](CO)NC(=O)[C@H](Cc3c[nH]c4ccccc34)NC2=O)[C@@H](C)O)CCNC(=O)[C@H]([C@@H](C)O)NC(=O)[C@H](CCN)NC(=O)[C@H](CCN)NC1=O [Ex. 174] (I: H-[Hiv]CY[Dab]G[dDab]EWS[Tle]C-{NHCH(CH2OH)2} / II: [Dab]T[Dap][Dab][Dab][dL]L[Dab][Dab]T; disulfide I:2-I:11; amide I:7-II:N; lactam II:4-II:C) | <1 | 0.0625 (≈ 0.0268 µM) | 0.25 (≈ 0.107 µM) | 0.0625 (≈ 0.0268 µM) | 0.125 (≈ 0.0537 µM) | 0.125 (≈ 0.0537 µM) | 0.25 (≈ 0.107 µM) | 0.125 (≈ 0.0537 µM) | 0.0625 (≈ 0.0268 µM) | – | – | – | –
CC[C@H](C)[C@H](NC(C)=O)C(=O)N[C@H]1CCCNC(=O)[C@@H]([C@H](C)O)NC(=O)[C@H](C(C)(C)C)NC(=O)[C@H](CO)NC(=O)[C@H](Cc2c[nH]c3ccccc23)NC(=O)[C@H](CCO)NC(=O)[C@@H](CCN)NC(=O)[C@H](CCC(=O)N[C@@H](CCN)C(=O)N[C@H](C(=O)N[C@@H](CN)C(=O)N[C@H]2CCNC(=O)[C@H]([C@@H](C)O)NC(=O)[C@H](CCN)NC(=O)[C@H](CCN)NC(=O)[C@H](CC(C)C)NC(=O)[C@@H](CC(C)C)NC(=O)[C@H](CCN)NC2=O)[C@@H](C)O)NC(=O)[C@H](CN)NC(=O)[C@H](Cc2ccc(O)cc2)NC1=O [Ex. 32] (I: Ac-I[Orn]Y[Dap]E[dDab][hSer]WS[Tle][dT] / II: [Dab]T[Dap][Dab][Dab][dL]L[Dab][Dab]T; lactam I:2-I:C, II:4-II:C; amide I:5-II:N) | <1 | 0.0625 (≈ 0.0268 µM) | 0.125 (≈ 0.0536 µM) | 0.0625 (≈ 0.0268 µM) | 0.0625 (≈ 0.0268 µM) | 0.0625 (≈ 0.0268 µM) | 0.25 (≈ 0.107 µM) | 0.25 (≈ 0.107 µM) | 0.125 (≈ 0.0536 µM) | – | – | – | –
CC[C@H](C)[C@@H]1NC(=O)[C@H](CO)NC(=O)[C@H](Cc2c[nH]c3ccccc23)NC(=O)[C@H](CO)NC(=O)[C@@H](CCN)NC(=O)[C@H](CCC(=O)N[C@@H](CCN)C(=O)N[C@H](C(=O)N[C@@H](CN)C(=O)N[C@H]2CCNC(=O)[C@H]([C@@H](C)O)NC(=O)[C@H](CCN)NC(=O)[C@H](CCN)NC(=O)[C@H](CC(C)C)NC(=O)[C@@H](CC(C)C)NC(=O)[C@H](CCN)NC2=O)[C@@H](C)O)NC(=O)[C@H](CCN)NC(=O)[C@H](Cc2ccc(O)cc2)NC(=O)[C@@H](NC(=O)[C@@H](NC(C)=O)C(C)C)CCNC(=O)CC[C@@H](C(=O)N[C@@H](CO)C(N)=O)NC1=O [Ex. 324] (I: Ac-V[Dab]Y[Dab]E[dDab]SWSIES-NH2 / II: [Dab]T[Dap][Dab][Dab][dL]L[Dab][Dab]T; lactam I:2-I:11, II:4-II:C; amide I:5-II:N) | <1 | – | 0.125 (≈ 0.0517 µM) | – | 0.125 (≈ 0.0517 µM) | 0.125 (≈ 0.0517 µM) | 0.5 (≈ 0.207 µM) | – | – | 0.0625 | 0.0625 | 0.0625 | 0.0625
CC(=O)N[C@H](C(=O)N[C@H]1CSSC[C@@H](C(=O)N[C@@H](CO)C(N)=O)NC(=O)[C@H](C(C)(C)C)NC(=O)[C@H](CCC(=O)O)NC(=O)[C@H](Cc2c[nH]c3ccccc23)NC(=O)[C@H](CCO)NC(=O)[C@@H](CCN)NC(=O)[C@H](CCC(=O)N[C@@H](CCN)C(=O)N[C@H](C(=O)N[C@@H](CN)C(=O)N[C@H]2CCNC(=O)[C@H]([C@@H](C)O)NC(=O)[C@H](CCN)NC(=O)[C@H](CCN)NC(=O)[C@H](CC(C)C)NC(=O)[C@@H](CC(C)C)NC(=O)[C@H](CCN)NC2=O)[C@@H](C)O)NC(=O)[C@H](CCCCN)NC(=O)[C@H](Cc2ccc(O)cc2)NC1=O)C(C)C [Ex. 159] (I: Ac-VCYKE[dDab][hSer]WE[Tle]CS-NH2 / II: [Dab]T[Dap][Dab][Dab][dL]L[Dab][Dab]T; disulfide I:2-I:11; amide I:5-II:N; lactam II:4-II:C) | <1 | 0.0625 (≈ 0.025 µM) | 0.125 (≈ 0.0501 µM) | 0.0625 (≈ 0.025 µM) | 0.25 (≈ 0.1 µM) | 0.25 (≈ 0.1 µM) | 0.5 (≈ 0.2 µM) | 0.125 (≈ 0.0501 µM) | 0.125 (≈ 0.0501 µM) | – | – | – | –
CC(C)C[C@@H]1NC(=O)[C@@H](CC(C)C)NC(=O)[C@H](CCN)NC(=O)[C@@H](NC(=O)[C@H](CCN)NC(=O)[C@@H](NC(=O)[C@H](CCN)NC(=O)CC[C@@H]2NC(=O)[C@H](CCN)NC(=O)[C@H](C(C)C)NC(=O)[C@@H](NC(=O)[C@@H](O)C(C)C)CSSC[C@@H](C(=O)NC(CO)CO)NC(=O)[C@H](Cc3ccc(O)cc3)NC(=O)[C@H](CO)NC(=O)[C@H](Cc3c[nH]c4ccccc34)NC(=O)[C@H](CCO)NC(=O)[C@@H](CCN)NC2=O)[C@@H](C)O)CCNC(=O)[C@H]([C@@H](C)O)NC(=O)[C@H](CCN)NC(=O)[C@H](CCN)NC1=O [Ex. 97] (I: H-[Hiv]CV[Dab]E[dDab][hSer]WSYC-{NHCH(CH2OH)2} / II: [Dab]T[Dab][Dab][Dab][dL]L[Dab][Dab]T; disulfide I:2-I:11; amide I:5-II:N; lactam II:4-II:C) | <1 | 0.25 (≈ 0.105 µM) | – | 0.25 (≈ 0.105 µM) | 2 (≈ 0.843 µM) | 2 (≈ 0.843 µM) | 8 (≈ 3.37 µM) | 0.25 (≈ 0.105 µM) | 0.125 (≈ 0.0527 µM) | – | – | – | –
CC(C)C[C@@H]1NC(=O)[C@@H](CC(C)C)NC(=O)[C@H](CCN)NC(=O)[C@@H](NC(=O)[C@H](CN)NC(=O)[C@@H](NC(=O)[C@H](CCN)NC(=O)CC[C@H]2NC(=O)[C@@H](CCN)NC(=O)[C@H](CCCN)NC(=O)[C@H](CCN)NC(=O)[C@H](Cc3ccc(O)cc3)NC(=O)[C@@H](NC(=O)[C@@H](O)C(C)C)CSSC[C@@H](C(=O)N[C@H](C(N)=O)[C@@H](C)O)NC(=O)[C@H](C(C)(C)C)NC(=O)[C@H](CO)NC(=O)[C@H](Cc3c[nH]c4ccccc34)NC2=O)[C@@H](C)O)CCNC(=O)[C@H]([C@@H](C)O)NC(=O)[C@H](CCN)NC(=O)[C@H](CCN)NC1=O [Ex. 169] (I: H-[Hiv]CY[Dab][Orn][dDab][dE]WS[Tle]CT-NH2 / II: [Dab]T[Dap][Dab][Dab][dL]L[Dab][Dab]T; disulfide I:2-I:11; amide I:7-II:N; lactam II:4-II:C) | <1 | 0.25 (≈ 0.104 µM) | – | 0.25 (≈ 0.104 µM) | 1 (≈ 0.414 µM) | 0.5 (≈ 0.207 µM) | 4 (≈ 1.66 µM) | 0.25 (≈ 0.104 µM) | 0.5 (≈ 0.207 µM) | – | – | – | –
CC(C)C[C@@H]1NC(=O)[C@H](CCN)NC(=O)[C@H](CCN)NC(=O)[C@H](CC(C)C)NC(=O)[C@@H](CC(C)C)NC(=O)[C@H](CCN)NC(=O)[C@@H](NC(=O)[C@@H](CCN)NC(=O)CC[C@@H]2NC(=O)[C@H](CCCN)NC(=O)[C@H](CCN)NC(=O)[C@H](Cc3ccc(O)cc3)NC(=O)[C@@H](NC(=O)[C@@H](O)C(C)C)CSSC[C@@H](C(=O)N[C@H](C(N)=O)[C@@H](C)O)NC(=O)[C@H](C(C)(C)C)NC(=O)[C@H](CO)NC(=O)[C@H](Cc3c[nH]c4ccccc34)NC(=O)[C@H]([C@@H](C)O)NC2=O)CCNC1=O [Ex. 164] (I: H-[Hiv]CY[Dab][Orn]ETWS[Tle]CT-NH2 / II: [dDab][Dab][Dab][dL]L[Dab][Dab]L; disulfide I:2-I:11; amide I:6-II:N; lactam II:2-II:C) | <1 | 0.5 (≈ 0.223 µM) | – | 0.5 (≈ 0.223 µM) | 2 (≈ 0.893 µM) | 0.25 (≈ 0.112 µM) | 1 (≈ 0.447 µM) | 1 (≈ 0.447 µM) | 0.5 (≈ 0.223 µM) | – | – | – | –
